# Experimental data reported in US10358469B2, “Methods and pharmaceutical compositions for the treatment of cancer” (INSERM (INSTITUT NATIONAL DE LA SANTÉ ET DE LA RECHERCHE …, priority 2014, dated 2019).
# Experiments:
# A549 cells = assay: Cell viability (MTT) of A549 cells under low serum / serum deprivation; format: cell-based
# Experimental: (A) Karpas 1106, SU-DHL-5, SeAx and HUT-78 cells were plated at a densities of 6×10^3 in 96 well plates (100 μL total volume per well) and treated for 24 hours in a 37° C. incubator (5% CO2) with increasing concentrations of the Antp-AAC-11-LZ (363-399). 20 μL MTS reagent was then added to each well and plates were incubated for an additional 4 hours. Absorbance was measured at 490 nm using a 96-well plate reader. The extent to which the Antp-AAC-11-LZ (363-399) peptide inhibited cell proliferation was calculated as a percentage of the absorbance in each well containing the Antp-AAC-11-LZ (363-399) peptide relative to wells containing no peptide (negative control). Each bar represents the mean±s.d. from at least three independent experiments. (B) Indicated cells were plated at a densities of 4.5×10^3 in 96 well plates (100 μL total volume per well) and allowed to attach overnight in a 37° C. incubator (5% CO2). Media was removed from cells and replaced with media containing Antp-AAC-11-LZ (363-399) peptide at various concentrations (100 μL total volume per well) peptide and the plates were incubated for 24 hours. The MTT assay was then completed and data analysis was performed as described herein. […] A549 cells were plated at a densities of 4.5×10^3 in 96 well plates (100 μL total volume per well) and allowed to attach overnight in a 37° C. incubator (5% CO2). Media was removed from cells and replaced with media containing the indicated peptides at 10 μM (100 μL total volume per well) and the plates were incubated for 24 hours. The MTT assay was then completed and data analysis was performed as described herein.
# (A) A549 cells were plated at a densities of 4.5×10^3 in 96 well plates (100 μL total volume per well) and allowed to attach overnight in a 37° C. incubator (5% CO2). Media was removed from cells and replaced with media containing the indicated peptides at various concentrations (100 μL total volume per well) peptide in the absence of serum and the plates were incubated for 24 hours. The MTT assay was then completed and data analysis was performed as described herein. (B) A549 or HaCat cells were plated at a densities of 4.5×10^3 in 96 well plates (100 μL total volume per well) and allowed to attach overnight in a 37° C. incubator (5% CO2). Media was removed from cells and replaced with media containing the indicated peptides at 10 μM (100 μL total volume per well) peptide in the absence of serum and the plates were incubated for 24 hours. The MTT assay was then completed and data analysis was performed as described herein.
# A549 cells were plated at a densities of 4.5×10^3 in 96 well plates (100 μL total volume per well) and allowed to attach overnight in a 37° C. incubator (5% CO2). Cells were left untreated or pre-treated with 100 μM Z-VAD-FMK for 2 h. […] The MTT assay was then completed and data analysis was performed as described herein.
# (A) A549 cells were plated at a densities of 4.5×10^3 in 96 well plates (100 μL total volume per well) and allowed to attach overnight in a 37° C. incubator (5% CO2). Media was removed from cells and replaced with media containing the indicated Antp-AAC-11-LZ peptides at various concentrations (100 μL total volume per well) peptide and the plates were incubated for 24 hours. The MTT assay was then completed and data analysis was performed as described herein. (B) A549 or HaCat cells were plated at a densities of 4.5×10^3 in 96 well plates (100 μL total volume per well) and allowed to attach overnight in a 37° C. incubator (5% CO2). Media was removed from cells and replaced with media containing the indicated peptides at 10 μM (100 μL total volume per well) peptide in the absence of serum and the plates were incubated for 24 hours. The MTT assay was then completed and data analysis was performed as described herein.
# SeAx cells = assay: Propidium iodide (PI) uptake, flow cytometry, SeAx cells; format: cell-based; conditions: 4 μM
# Experimental: (A) SeAx or HaCat cells cultured in the absence of 10% FBS were left untreated or treated with 4 μM or 10 μM, respectively, of the Antp-AAC-11-LZ (363-399) peptide for the indicated durations. Cells were then analyzed by flow cytometry for PI staining. The results represent the mean number of PI-positive cells±S.D. from at least three independent experiments. (B) A549 and HaCat cells were plated at a densities of 4.5×10^3 in 96 well plates (100 μL total volume per well) and allowed to attach overnight in a 37° C. incubator (5% CO2). […] Lactate dehydrogenase (LDH) activity released in the culture medium was then assessed and data expressed as a percentage of the maximal level (Max) of LDH activity determined after total cell lysis±S.D. from at least three independent experiments.
# (A) SeAx cultured in the absence of 10% FBS were left untreated or treated with 4 μM of the indicated Antp-AAC-11-LZ peptides for various times. Cells were then analyzed by flow cytometry for PI staining. […] Lactate dehydrogenase (LDH) activity released in the culture medium was then assessed and data expressed as a percentage of the maximal level (Max) of LDH activity determined after total cell lysis±S.D.
# Cell death was evaluated upon staining with propidium iodide and flow cytometry analysis. […]
substance,measurement,setting,value
Ac-RQIKIWFKKQNRRMKWKKAKLNAEKLKDFKIRLQYFARGLQVYIRQLRLALQGKT-NH2 [Antp-AAC-11-LZ (363-399)],cellular viability,A549 cells; 2 µM,97 % of control
same,influence of cycloheximide on peptide induced-cytotoxicity,"A549 cells; 10 μM cycloheximide, various peptide concentrations, data not shown",had no influence
same,induction of cell death of A549 cells,"A549 cells; 10 μM, serum deprivation, 24 hours, FIG. 1C",induced cell death
same,effect of pan-caspase inhibitor Z-VAD-FMK on induced cytotoxicity / cell death,"A549 cells; 100 μM Z-VAD-FMK, 2 h pre-treatment, 24 hours, cisplatin 50 μM, FIG. 3","did not rescue, but somehow increased"
same,PI positive cells,"SeAx cells; 5 minutes, absence of 10% FBS",90%
same,"PI positive cells, course after 5 minutes",SeAx cells; up to 60 minutes,remained unchanged
